Measured values taken from publication PMC8119466, “A screen of FDA-approved drugs identifies inhibitors of protein tyrosine phosphatase 4A3 (PTP4A3 or PRL-3)” (Scientific Reports, 2021).
Structures can show the parent of a compound that is named as a salt. Where two headings read alike, the source gives them in different places. Starred links: 1 amine or outer side, 2 acyl side, 3 side chain; linkers in the order of their positions; H or OH if unused. Positions of bridges follow the written chain, without caps; N, C: chain ends. Non-standard residues stand in square brackets, D forms with d. Residues, ends and D or L forms follow the SMILES beside them. *: point of attachment. hTyr(3S-OH,4S-OH,3'-OSO3H) = N[C@H](C(=O)O)[C@H](O)[C@@H](O)c1ccc(O)c(OS(=O)(=O)O)c1; Orn(4R-OH,5R-OH) = O=C([C@H](C[C@@H](O)[C@@H](O)N[*:3])N[*:1])[*:2]; Pro(3S-OH,4S-Me) = C[C@H]1CN[C@H](C(=O)O)[C@H]1O; X1 = CCCCCOc1ccc(-c2cc(-c3ccc(C(=O)*)cc3)no2)cc1; Gln(3R-OH) = NC(=O)C[C@@H](O)[C@H](N)C(=O)O; Hyp = O=C(O)[C@@H]1C[C@@H](O)CN1

Assays:
Type in all cases: biochemical
recombinant PRL-2 = target: T1, recombinant PRL-2 (Homo sapiens, UniProt Q12974); assay: In vitro phosphatase assay (DiFMUP hydrolysis), PRL-2;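 further: PRL-2 activity read as DiFMUP hydrolysis after 20 min at room temperature with drug, enzyme first pre-reduced at 4 °C for 20 min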
T1 construct: 6xHis (N, cleaved yes); made in house; host or cells: E. coli One Shot BL21 Star
T1 sequence (Q12974 1-167): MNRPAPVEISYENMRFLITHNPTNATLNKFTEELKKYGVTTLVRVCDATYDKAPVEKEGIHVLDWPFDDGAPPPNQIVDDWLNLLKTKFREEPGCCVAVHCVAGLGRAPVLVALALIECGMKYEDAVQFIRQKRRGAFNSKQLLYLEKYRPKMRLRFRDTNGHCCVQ

recombinant PRL-1 = target: T2, recombinant PRL-1 (Homo sapiens, UniProt Q93096); assay: In vitro phosphatase assay (DiFMUP hydrolysis), PRL-1; further: test concentration or dose not given here
T2 construct: 6xHis (N, cleaved yes); made in house; host or cells: E. coli One Shot BL21 Star
T2 sequence (Q93096 1-173): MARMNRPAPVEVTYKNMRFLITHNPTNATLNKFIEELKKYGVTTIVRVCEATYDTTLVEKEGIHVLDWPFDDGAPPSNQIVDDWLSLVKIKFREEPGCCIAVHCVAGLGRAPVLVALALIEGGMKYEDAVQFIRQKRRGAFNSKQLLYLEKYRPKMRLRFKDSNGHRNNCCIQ

recombinant PRL-3 = target: T3, recombinant PRL-3 (Homo sapiens, UniProt O75365); assay: In vitro phosphatase assay (DiFMUP hydrolysis), PRL-3; further: test concentration or dose not given here
T3 construct: 6xHis (N, cleaved yes); made in house; host or cells: E. coli One Shot BL21 Star
T3 sequence (O75365 whole entry): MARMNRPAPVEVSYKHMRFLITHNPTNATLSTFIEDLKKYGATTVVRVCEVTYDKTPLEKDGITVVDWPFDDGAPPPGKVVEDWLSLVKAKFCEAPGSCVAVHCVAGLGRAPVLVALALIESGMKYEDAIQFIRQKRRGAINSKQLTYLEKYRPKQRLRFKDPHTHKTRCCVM

[1] = FDA-approved drug screen, compared to DMSO

Compound	% Phosphatase Activity (compared to DMSO) PRL-2 (recombinant PRL-2; [1])	% Phosphatase Activity (compared to DMSO) PRL-1 (recombinant PRL-1; [1])	% Phosphatase Activity (compared to DMSO) PRL-3 (recombinant PRL-3; [1])	% Phosphatase Activity (compared to DMSO) PRL-2 (recombinant PRL-2)	% Phosphatase Activity (compared to DMSO) PRL-1 (recombinant PRL-1)	% Phosphatase Activity (compared to DMSO) PRL-3 (recombinant PRL-3)
Cc1cc(=O)[nH]c(=S)[nH]1 [Methylthiouracil]	93%	110%	75%	–	–	–
Cc1cc2c(cc1S(N)(=O)=O)S(=O)(=O)CCC2 [Meticrane]	94%	104%	83%	–	–	–
CCN(CC)CCNC(=O)c1cc(Cl)c(N)cc1OC.Cl [MetoclopraMide HCl]	84%	97%	75%	–	–	–
Cc1ccccc1N1C(=O)c2cc(S(N)(=O)=O)c(Cl)cc2NC1C (stereo not drawn) [Metolazone]	163%	144%	121%	–	–	–
COCCc1ccc(OCC(O)CNC(C)C)cc1 (stereo not drawn) [Metoprolol Tartrate]	109%	89%	98%	–	–	–
Cc1ncc([N+](=O)[O-])n1CCO [Metronidazole]	92%	89%	87%	–	–	–
CC[C@H](C)C(=O)O[C@H]1CCC=C2C=C[C@H](C)[C@H](CC[C@@H]3C[C@@H](O)CC(=O)O3)[C@H]21 [Mevastatin]	89%	88%	71%	–	–	–
Cc1cccc(C)c1OCC(C)N (stereo not drawn) [Mexiletine HCl]	–	–	–	106%	98%	78%
CC1(C)S[C@@H]2[C@H](NC(=O)[C@H](NC(=O)N3CCN(S(C)(=O)=O)C3=O)c3ccccc3)C(=O)N2[C@H]1C(=O)O [Mezlocillin Sodium]	91%	92%	67%	–	–	–
CN1CCN2c3ccccc3Cc3ccccc3C2C1 (stereo not drawn) [Mianserin HCl]	99%	95%	59%	–	–	–
CCCCCOc1ccc(-c2cc(-c3ccc(C(=O)N[C@H]4C[C@@H](O)[C@@H](O)NC(=O)[C@@H]5[C@@H](O)[C@@H](C)CN5C(=O)[C@H]([C@H](O)CC(N)=O)NC(=O)[C@H]([C@H](O)[C@@H](O)c5ccc(O)c(OS(=O)(=O)[O-])c5)NC(=O)[C@@H]5C[C@@H](O)CN5C(=O)[C@H]([C@@H](C)O)NC4=O)cc3)no2)cc1.[Na+] [Micafungin Sodium] (X1-[Orn(4R-OH,5R-OH)]T[Hyp][hTyr(3S-OH,4S-OH,3'-OSO3H)][Gln(3R-OH)][Pro(3S-OH,4S-Me)]; lactam 1-C)	90%	74%	49%	–	–	–
Clc1ccc(COC(Cn2ccnc2)c2ccc(Cl)cc2Cl)c(Cl)c1 (stereo not drawn) [Miconazole Nitrate]	93%	98%	92%	–	–	–
Clc1ccc(COC(Cn2ccnc2)c2ccc(Cl)cc2Cl)c(Cl)c1 (stereo not drawn) [Miconazole]	101%	109%	86%	–	–	–
CC#C[C@]1(O)CC[C@H]2[C@@H]3CCC4=CC(=O)CCC4=C3[C@@H](c3ccc(N(C)C)cc3)C[C@@]21C [Mifepristone]	135%	96%	95%	–	–	–
OCCN1C[C@H](O)[C@@H](O)[C@H](O)[C@H]1CO [Miglitol]	120%	114%	88%	–	–	–
CCN(CC)C(=O)C1(c2ccccc2)CC1CN.Cl (stereo not drawn) [Milnacipran HCl]	107%	114%	80%	–	–	–
Cc1[nH]c(=O)c(C#N)cc1-c1ccncc1 [Milrinone]	110%	98%	83%	–	–	–
CCCCCCCCCCCCCCCCOP(=O)([O-])OCC[N+](C)(C)C [Miltefosine]	94%	92%	122%	–	–	–
CN(C)c1ccc(O)c2c1C[C@H]1C[C@H]3[C@H](N(C)C)C(O)=C(C(N)=O)C(=O)[C@@]3(O)C(O)=C1C2=O [Minocycline HCl]	70%	84%	104%	–	–	–
